pIC50: −log10 of the molar value. Non-standard residues stand in square brackets, D forms with d. Residues, ends and D or L forms follow the SMILES beside them. *: point of attachment. 4Amb = NCc1ccc(C(=O)O)cc1; NHtBu = CC(C)(C)N*; ClAc = O=C(CCl)*; βAla = NCCC(=O)O
Columns and labels:
HT-29 = experiment: Antiproliferative activity against human HT-29 cells assessed as growth inhibition at 0.2 uM measured after 72 hrs by MTT assay; assay type: functional; settings: read-out: GI
DOHH-2 = experiment: Antiproliferative activity against human DOHH-2 cells assessed as growth inhibition at 0.2 uM measured after 72 hrs by MTT assay; assay type: functional; settings: read-out: GI
MCF7 = experiment: Antiproliferative activity against human MCF7 cells assessed as growth inhibition at 0.2 uM measured after 72 hrs by MTT assay; assay type: functional; settings: read-out: GI
Pfeiffer = experiment: Antiproliferative activity against human Pfeiffer cells assessed as growth inhibition at 0.2 uM measured after 72 hrs by MTT assay; assay type: functional; settings: read-out: GI
HCT-116 = experiment: Antiproliferative activity against human HCT-116 cells assessed as growth inhibition at 0.2 uM measured after 72 hrs by MTT assay; assay type: functional; settings: read-out: GI
[1] = Selectivity ratio of IC50 for inhibition of 20S proteasome beta 5c subunit (unknown origin) to IC50 for inhibition of 20S proteasome subunit beta-5i
[2] = biological target: T1, Proteasome subunit beta type-8 (Homo sapiens, UniProt P28062); experiment: Inhibition of 20S proteasome subunit beta-5i (unknown origin) using Ac-ANW-AMC as substrate and measured after 30 mins
T1 sequence (P28062 whole entry): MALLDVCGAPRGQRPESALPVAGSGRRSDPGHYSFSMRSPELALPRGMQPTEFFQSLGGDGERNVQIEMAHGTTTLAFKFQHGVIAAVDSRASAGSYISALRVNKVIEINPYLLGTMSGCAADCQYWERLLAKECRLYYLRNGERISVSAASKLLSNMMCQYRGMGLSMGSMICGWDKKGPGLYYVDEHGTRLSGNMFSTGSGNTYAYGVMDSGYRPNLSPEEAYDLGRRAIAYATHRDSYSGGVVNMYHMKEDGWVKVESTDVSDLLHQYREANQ

[3] = biological target: T2, Proteasome Macropain subunit MB1 (Homo sapiens, UniProt P28074); experiment: Inhibition of 20S proteasome subunit beta-5c (unknown origin) using Ac-WLA-AMC as substrate and measured after 30 mins
T2 sequence (P28074 whole entry): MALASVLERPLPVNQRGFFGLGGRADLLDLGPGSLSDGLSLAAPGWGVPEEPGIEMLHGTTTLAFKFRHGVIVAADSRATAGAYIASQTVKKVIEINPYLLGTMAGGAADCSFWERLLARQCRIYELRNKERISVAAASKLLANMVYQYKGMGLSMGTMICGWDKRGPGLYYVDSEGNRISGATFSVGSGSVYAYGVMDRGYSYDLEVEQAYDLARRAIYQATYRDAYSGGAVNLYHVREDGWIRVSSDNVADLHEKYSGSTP

| Ratio IC50 [1] | pIC50 [2] | pIC50 [3] | Compound | inhibition of growth at 0.2 µM (HT-29) [%] | inhibition of growth at 0.2 µM (DOHH-2) [%] | inhibition of growth at 0.2 µM (MCF7) [%] | inhibition of growth at 0.2 µM (Pfeiffer) [%] | inhibition of growth at 0.2 µM (HCT-116) [%] |
| --- | --- | --- | --- | --- | --- | --- | --- | --- |
| 2 | – | – | Cc1ccc(CNC(=O)[C@H](Cc2ccccc2)NC(=O)[C@H](CCC(=O)NC(C)(C)C)NC(=O)[C@H](CNC(=O)CCl)NC(=O)C(=O)c2c[nH]c3ccccc23)cc1 | < 20 | < 20 | < 20 | 32 | 44 |
| 7 | 8.02 | – | Cc1ccc(CNC(=O)[C@H](Cc2ccccc2)NC(=O)[C@H](CCC(=O)NC(C)(C)C)NC(=O)CCNC(=O)/C(C#N)=C/C2CC2)cc1 | < 20 | 25 | 22 | < 20 | 26 |
| 6 | 6.20 | 5.42 | Cc1ccc(CNC(=O)CNC(=O)[C@H](CCC(=O)NC(C)(C)C)NC(=O)CCNC(=O)CCl)cc1 | – | – | – | – | – |
| 20 | 8.19 | – | Cc1ccc(CNC(=O)[C@H](Cc2cccc(F)c2)NC(=O)[C@H](CCC(=O)NC(C)(C)C)NC(=O)CCNC(=O)CCl)cc1 | < 20 | < 20 | < 20 | 29 | 35 |
| 3 | 7.21 | 6.69 | CC[C@H](NC(=O)[C@H](CCC(=O)NC(C)(C)C)NC(=O)CCNC(=O)CCl)C(=O)NCc1ccc(C)cc1 | – | – | – | – | – |
| 4 | – | 7.09 | Cc1ccc(CNC(=O)[C@H](Cc2ccccc2F)NC(=O)[C@H](CCC(=O)NC(C)(C)C)NC(=O)CCNC(=O)CCl)cc1 | – | – | – | – | – |
| 4 | – | – | Cc1ccc(CNC(=O)[C@H](Cc2ccccc2)NC(=O)[C@H](CCC(=O)NC(C)(C)C)NC(=O)CCNC(=O)/C(C#N)=C/c2nccs2)cc1 | < 20 | 22 | < 20 | 22 | < 20 |
| > 19 | – | < 5.30 | CC(C)(C)NC(=O)CC[C@H](NC(=O)CCNC(=O)CCl)C(=O)N[C@@H](Cc1ccccc1)C(=O)NCc1ccccc1C(F)(F)F | – | – | – | – | – |
| – | < 5.30 | – | CC(C)(C)NC(=O)CC[C@H](NC(=O)CCNC(=O)CCl)C(=O)N[C@@H](Cc1ccccc1)C(=O)NCc1ccc(S(C)(=O)=O)cc1 | – | – | – | – | – |
| 6 | – | – | COC(=O)c1ccc(CNC(=O)[C@H](Cc2ccccc2)NC(=O)[C@H](CCC(=O)NC(C)(C)C)NC(=O)CCNC(=O)CCl)cc1 ({ClAc-βAla}-Glu(NHtBu)-Phe-[4Amb]-OMe) | – | – | – | – | – |
| > 16 | 6.19 | < 6.19 | COC(=O)C1CCN(C(=O)C[C@H](NC(=O)[C@H](CNC(=O)CCl)NC(=O)CN2CCOCC2)C(=O)N[C@@H](Cc2ccccc2)C(=O)NCc2ccc(C)cc2)CC1 | – | – | – | – | – |
| 2 | 7.36 | 7.10 | COC[C@H](NC(=O)[C@H](CCC(=O)NC(C)(C)C)NC(=O)CCNC(=O)CCl)C(=O)NCc1ccc(C)cc1 | – | – | – | – | – |
| 12 | – | – | CC(C)c1ccc(CNC(=O)[C@H](Cc2ccccc2)NC(=O)[C@H](CCC(=O)NC(C)(C)C)NC(=O)CCNC(=O)CCl)cc1 | – | – | – | – | – |
| 11 | – | – | COc1cccc(CNC(=O)[C@H](Cc2ccccc2)NC(=O)[C@H](CCC(=O)NC(C)(C)C)NC(=O)CCNC(=O)CCl)c1 | – | – | – | – | – |
| 4 | – | – | Cc1ccc(CNC(=O)[C@H](Cc2ccccc2)NC(=O)[C@H](CCC(=O)NC(C)(C)C)NC(=O)CCNC(=O)/C(C#N)=C/C(C)C)cc1 | < 20 | 27 | < 20 | 27 | 30 |
| 41 | 7.02 | 5.41 | Cc1ccc(CNC(=O)CNC(=O)[C@H](CCC(=O)NC(C)(C)C)NC(=O)[C@H](CNC(=O)CCl)NC(=O)CN2CCOCC2)cc1 | – | – | – | – | – |
| 9 | – | – | Cc1ccc(/C=C(\C#N)C(=O)NCCC(=O)N[C@@H](CCC(=O)NC(C)(C)C)C(=O)N[C@@H](Cc2ccccc2)C(=O)NCc2ccc(C)cc2)cc1 | < 20 | < 20 | < 20 | 29 | 41 |
| 15 | – | – | CC(C)(C)NC(=O)CC[C@H](NC(=O)CCNC(=O)CCl)C(=O)N[C@@H](Cc1ccccc1)C(=O)NCc1ccc2ccccc2c1 | < 20 | < 20 | < 20 | 25 | 39 |

| Ratio IC50 [1] | pIC50 [2] | pIC50 [3] | Compound | inhibition of growth at 0.2 µM (HT-29) [%] | inhibition of growth at 0.2 µM (DOHH-2) [%] | inhibition of growth at 0.2 µM (MCF7) [%] | inhibition of growth at 0.2 µM (Pfeiffer) [%] | inhibition of growth at 0.2 µM (HCT-116) [%] |
| --- | --- | --- | --- | --- | --- | --- | --- | --- |
| 6 | – | – | Cc1ccc(CNC(=O)[C@H](Cc2ccccc2)NC(=O)[C@H](CCC(=O)NC(C)(C)C)NC(=O)[C@H](CNC(=O)CCl)NC(=O)OC(C)(C)C)cc1 | 11 | < 20 | < 20 | 29 | 46 |
| 10 | – | 5.45 | Cc1ccc(CNC(=O)[C@H](Cc2ccccc2)NC(=O)[C@H](CCC(=O)N2CCCC2)NC(=O)[C@H](CNC(=O)CCl)NC(=O)CN2CCOCC2)cc1 | – | – | – | – | – |
| 3 | 6.86 | 6.37 | Cc1ccc(CNC(=O)[C@H](Cc2ccccc2)NC(=O)[C@H](CC(=O)NCC2CCCO2)NC(=O)[C@H](CNC(=O)CCl)NC(=O)CN2CCOCC2)cc1 (stereo partly drawn) | – | – | – | – | – |
| > 14 | – | < 5.30 | CC(C)(C)NC(=O)CC[C@H](NC(=O)CCNC(=O)CCl)C(=O)N[C@@H](Cc1ccccc1)C(=O)NCc1ccc(OC(F)(F)F)cc1 | – | – | – | – | – |
| – | < 5.30 | – | CC(C)(C)NC(=O)CC[C@H](NC(=O)CCNC(=O)CCl)C(=O)N[C@@H](Cc1ccccc1)C(=O)NCc1ccc(C#N)cc1C(F)(F)F | – | – | – | – | – |
| 22 | – | – | Cc1ccc(CNC(=O)[C@H](Cc2ccccc2)NC(=O)[C@H](CCC(=O)NC(C)(C)C)NC(=O)CCNC(=O)/C(C#N)=C/c2ccc(Cl)cc2)cc1 | < 20 | < 20 | 43 | 34 | 28 |
| 12 | – | – | Cc1ccc(CNC(=O)[C@H](Cc2ccccc2)NC(=O)[C@H](CCC(=O)NC(C)(C)C)NC(=O)CCNC(=O)CCl)cc1 | < 20 | 36 | < 20 | < 20 | 49 |
| > 11 | – | < 5.30 | Cc1ncsc1-c1ccc(CNC(=O)[C@H](Cc2ccccc2)NC(=O)[C@H](CCC(=O)NC(C)(C)C)NC(=O)CCNC(=O)CCl)cc1 | – | – | – | – | – |
| 27 | 7.44 | – | Cc1[nH]c2ccc(CNC(=O)[C@H](Cc3ccccc3)NC(=O)[C@H](CCC(=O)NC(C)(C)C)NC(=O)CCNC(=O)CCl)cc2c1C | – | – | – | – | – |
| 14 | – | – | Cc1ccc(CNC(=O)[C@H](Cc2ccccc2)NC(=O)[C@H](CCC(=O)NC(C)(C)C)NC(=O)[C@H](CNC(=O)CCl)NC(=O)CN2CCOCC2)cc1 | < 20 | < 20 | < 20 | 32 | 29 |
| 2 | 8.13 | 7.86 | Cc1ccc(CNC(=O)[C@H](Cc2c[nH]c3ccccc23)NC(=O)[C@H](CCC(=O)NC(C)(C)C)NC(=O)CCNC(=O)CCl)cc1 | < 20 | < 20 | < 20 | 28 | 29 |
| 5 | – | – | CC(C)(C)NC(=O)CC[C@H](NC(=O)CCNC(=O)CCl)C(=O)N[C@@H](Cc1ccccc1)C(=O)NCc1ccc(N2CCOCC2)cc1 | – | – | – | – | – |
| 52 | – | – | CC(C)(C)NC(=O)CC[C@H](NC(=O)CCNC(=O)CC#N)C(=O)N[C@@H](Cc1ccc2ccccc2c1)C(=O)NCc1cccc2ccccc12 | – | – | – | – | – |
| 22 | 6.90 | – | CC(C)(C)NC(=O)CC[C@H](NC(=O)CCNC(=O)CCl)C(=O)N[C@@H](Cc1ccccc1)C(=O)NCc1cccc(C(F)(F)F)c1 | – | – | – | – | – |
| 2 | – | – | COc1ccc(/C=C(\C#N)C(=O)NCCC(=O)N[C@@H](CCC(=O)NC(C)(C)C)C(=O)N[C@@H](Cc2ccccc2)C(=O)NCc2ccc(C)cc2)cc1 | < 20 | < 20 | < 20 | 28 | 32 |
| 3 | – | – | Cn1ncc2cc(CNC(=O)[C@H](Cc3ccccc3)NC(=O)[C@H](CCC(=O)NC(C)(C)C)NC(=O)CCNC(=O)CCl)ccc21 | – | – | – | – | – |
| 3 | – | – | CC(=O)N[C@@H](CNC(=O)CCl)C(=O)N[C@@H](CCC(=O)NC(C)(C)C)C(=O)N[C@@H](Cc1ccccc1)C(=O)NCc1ccc(C)cc1 | – | – | – | – | – |

Reference: ChEMBL document CHEMBL5154800, “Identification of N, C-capped di- and tripeptides as selective immunoproteasome inhibitors” (Eur J Med Chem, 2022)
